According to US20240150356A1, “Pyrimidine amide compounds and use thereof” (ALPHALA CO., LTD., priority 2019, published 2024):
Like-named read-outs stand apart in the source and are kept apart here.

Columns and labels:
Type in all cases: cell-based
[1] = test system: SW480 (colon adenocarcinoma cell line); assay: In vitro MTS cell viability assay (NCI-60 methodology), SW480; settings: Homo sapiens, SW480 cells, read-out: SW480 LC50
Description: (§1) The cell viability measurement is based on the NCI-60 screening methodology (Nat. Rev. Cancer 6, 813-823, 2006). Briefly, cells are inoculated into 96-well plates at the optimal plating density. After 24 h, one of the two plates for Hep3B cell line is processed to determine a time zero cell viability (Tz) by MTS assay (Promega). Compounds are added over a 2-fold serial dilution to provide a total five drug concentrations plus DMSO control. Plates are incubated for a further 2 days, then measured cell viability by MTS assay [control growth (C) and test growth in the presence of drug at the five concentration levels (Ti)]. The LC50 is calculated from [(Ti−Tz)/Tz]×100=−50, which is the drug concentration resulting in a 50% reduction at the end of the drug treatment as compared to that at the beginning.
(§2) The compounds prepared in Tables 1-10 were tested in three in vitro assays, and the results are shown in Tables 1-10 for Hep3B and Table 11 for SW480 and NCI-H460 shown below. Herein, Hep3B refers to hepatocellular carcinoma cell line, SW480 refers to colon adenocarcinoma cell line, and NCI-H460 refers to human lung cancer cell line.
(§3) Shown in Tables 11 are in vitro activities of exemplary compounds of formula (I).

[2] = test system: NCI-H460 (human lung cancer cell line); assay: In vitro MTS cell viability assay (NCI-60 methodology), NCI-H460; settings: NCI-H460 cells, read-out: NCI-H460 LC50
Description: as §1, §2, §3

[3] = test system: Hep3B cells (hepatocellular carcinoma cell line); assay: In vitro MTS cell viability assay (NCI-60 methodology), Hep3B; settings: Homo sapiens, 48 h, 2 days drug incubation, 50% reduction vs time zero, read-out: Hep3B LC50
In short: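 Following NCI-60 method, MTS viability of Hep3B measured 24 h after plating (time zero) and after a further 2-day exposure to five concentrations (2-fold series). LC50 defined where [(Ti−Tz)/Tz]×100 = −50.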

For `O=C(Nc1nc(-c2ccc(F)cc2)nc2c1cnn2-c1ccc(C(F)(F)F)cn1)c1ccc([N+](=O)[O-])s1` [Compound 7-1, N-(6-(4-fluorophenyl)-1-(5-(trifluoromethyl)pyridin-2-yl)-1H-pyrazolo[3,4-d]pyrimidin-4-yl)-5-nitrothiophene-2-carboxamide], the CC50 [1] was > 20 µM, the CC50 [2] was 8.63 µM and the LC50 ([3]; Table 7, MTS) was 0.26 µM.
`O=C(Nc1nc(N2CCC(F)(F)C2)nc2c1cnn2-c1ccc(OC(F)(F)F)cc1)c1ccc([N+](=O)[O-])s1` [Compound 6-85, N-(6-(3,3-difluoropyrrolidin-1-yl)-1-(4-(trifluoromethoxy)phenyl)-1H-pyrazolo[3,4-d]pyrimidin-4-yl)-5-nitrothiophene-2-carboxamide] was tested, and the CC50 [1] was 0.68 µM, the CC50 [2] was 0.56 µM and the LC50 ([3]; Table 6, MTS) was 0.2 µM.
In the case of `O=C(Nc1nc(-c2cccs2)nc2c1cnn2-c1ccccc1)c1ccc([N+](=O)[O-])s1` [Compound 5-18, 5-nitro-N-(1-phenyl-6-(thiophen-2-yl)-1H-pyrazolo[3,4-d]pyrimidin-4-yl)thiophene-2-carboxamide], the CC50 [1] is reported as 2.43 µM, the CC50 [2] is reported as 0.46 µM and the LC50 ([3]; Table 5, MTS) is reported as 0.58 µM.
Compound `Cn1ncc2c(NC(=O)c3ccc([N+](=O)[O-])s3)nc(-c3ccc(OC(F)(F)F)cc3)nc21` [Compound 1-5, N-(1-methyl-6-(4-(trifluoromethoxy)phenyl)-1H-pyrazolo[3,4-1]pyrimidin-4-yl)-5-nitrothiophene-2-carboxamide] has a CC50 [1] of 4.32 µM and a CC50 [2] of 2.85 µM.
With `Cn1ncc2c(NC(=O)c3ccc([N+](=O)[O-])s3)nc(-c3ccc(C(F)(F)F)cc3)nc21` [Compound 1-4, N-(1-methyl-6-(4-(trifluoromethyl)phenyl)-1H-pyrazolo[3,4-d]pyrimidin-4-yl)-5-nitrothiophene-2-carboxamide] the CC50 [1] was 6.19 µM and the CC50 [2] was 3.56 µM.
`COC(=O)[C@@H]1CCCN1c1nc(NC(=O)c2ccc([N+](=O)[O-])s2)c2cnn(-c3ccc(F)cc3)c2n1` [Compound 6-100, methyl (1-(4-fluorophenyl)-4-(5-nitrothiophene-2-carboxamido)-1H-pyrazolo [3,4-d]pyrimidin-6-yl)-L-prolinate] showed an LC50 ([3]; Table 6, MTS) of 0.74 µM.
With `O=C(Nc1nc(-c2cccc(F)c2)nc2c1cnn2C1CCCCC1)c1ccc([N+](=O)[O-])s1` [Compound 10-12, N-(1-cyclohexyl-6-(3-fluorophenyl)-1H-pyrazolo[3,4-d]pyrimidin-4-yl)-5-nitrothiophene-2-carboxamide] the LC50 ([3]; Table 10, MTS) was 0.95 µM.
`O=C(Nc1nc(-c2ccc(OCC(F)(F)F)nc2)nc2c1cnn2C1CCCCC1)c1ccc([N+](=O)[O-])s1` [Compound 10-49, N-(1-cyclohexyl-6-(6-(2,2,2-trifluoroethoxy)pyridin-3-yl)-1H-pyrazolo[3,4-d]pyrimidin-4-yl)-5-nitrothiophene-2-carboxamide] was tested, and the LC50 ([3]; Table 10, MTS) was 0.63 µM.
With `O=C(Nc1nc(-c2ccc(Cl)c(F)c2)nc2c(-c3ccccc3)csc12)c1ccc([N+](=O)[O-])s1` [Compound 4-16, N-(2-(4-chloro-3-fluorophenyl)-7-phenylthieno[3,2-d]pyrimidin-4-yl)-5-nitrothiophene-2-carboxamide] the LC50 ([3]; Table 4, MTS) was 0.56 µM.
Compound `Cc1csc2c(-c3cccc(OC(F)(F)F)c3)nc(NC(=O)c3ccc([N+](=O)[O-])s3)nc12` [Compound 2-7, N-(7-methyl-(3-(trifluoromethoxy)phenyl)thieno[3,2-d]pyrimidin-2-yl)-5-nitrothiophene-2-carboxamide] has an LC50 ([3]; Table 2, MTS) of 3.43 µM.
Work on `C[C@@H]1C[C@@H](n2ncc3c(NC(=O)c4ccc([N+](=O)[O-])s4)nc(-c4ccc(F)nc4)nc32)CC(C)(C)C1` [Compound 8-14, N-(6-(6-fluoropyridin-3-yl)-1-((1R,5S)-3,3,5-trimethylcyclohexyl)-1H-pyrazolo[3,4-d]pyrimidin-4-yl)-5-nitrothiophene-2-carboxamide] yielded an LC50 ([3]; Table 8, MTS) of 0.62 µM.
Compound `CC(C)(C)c1ccc(-n2ncc3c(NC(=O)c4ccc([N+](=O)[O-])s4)nc(N4CCCCC4)nc32)cc1` [Compound 6-63, N-(1-(4-(tert-butyl)phenyl)-6-(piperidin-1-yl)-1H-pyrazolo[3,4-d]pyrimidin-4-yl)-5-nitrothiophene-2-carboxamide] has an LC50 ([3]; Table 6, MTS) of 1.92 µM.
With `CC1CC(C)CC(n2ncc3c(NC(=O)c4ccc([N+](=O)[O-])s4)nc(-c4ccc(Cl)nc4)nc32)C1` (stereo not drawn) [Compound 10-70, N-(6-(6-chloropyridin-3-yl)-1-(3,5-dimethylcyclohexyl)-1H-pyrazolo[3,4-d]pyrimidin-4-yl)-5-nitrothiophene-2-carboxamide] the LC50 ([3]; Table 10, MTS) was 0.96 µM.
Work on `O=C(Nc1nc(-n2ccc(C(F)(F)F)n2)nc2c1cnn2-c1ccc(F)cc1)c1ccc([N+](=O)[O-])s1` [Compound 6-109, N-(1-(4-fluorophenyl)-6-(3-(trifluoromethyl)-1H-pyrazol-1-yl)-1H-pyrazolo[3,4-d]pyrimidin-4-yl)-5-nitrothiophene-2-carboxamide] yielded an LC50 ([3]; Table 6, MTS) of 0.38 µM.
For `O=C(Nc1nc(Oc2ccccc2)nc2c1cnn2-c1ccccc1)c1ccc([N+](=O)[O-])s1` [Compound 5-13, 5-nitro-N-(6-phenoxy-1-phenyl-1H-pyrazolo[3,4-d]pyrimidin-4-yl)thiophene-2-carboxamide], the LC50 ([3]; Table 5, MTS) was > 5 µM.
With `CCOC(=O)N1CCC(n2ncc3c(NC(=O)c4ccc([N+](=O)[O-])s4)nc(-c4ccc(F)nc4)nc32)C1` [Compound 8-5, ethyl (S)-3-(6-(6-fluoropyridin-3-yl)-4-(5-nitrothiophene-2-carboxamide)-1H-pyrazolo[3,4-d]pyrimidin-1-yl)pyrrolidine-1-carboxylate] the LC50 ([3]; Table 8, MTS) was > 2 µM.
`CC1(C)CCC(n2ncc3c(NC(=O)c4ccc([N+](=O)[O-])s4)nc(-c4ccc(Cl)nc4)nc32)CC1` [Compound 10-64, N-(6-(6-chloropyridin-3-yl)-1-(4,4-dimethylcyclohexyl)-1H-pyrazolo[3,4-d]pyrimidin-4-yl)-5-nitrothiophene-2-carboxamide] was tested, and the LC50 ([3]; Table 10, MTS) was 0.57 µM.
`O=C(Nc1nc(-c2ccc(Cl)nc2)nc2c1cnn2Cc1ccccc1)c1ccc([N+](=O)[O-])s1` [Compound 7-15, N-(1-benzyl-6-(6-chloropyridin-3-yl)-1H-pyrazolo[3,4-d]pyrimidin-4-yl)-5-nitrothiophene-2-carboxamide] was tested, and the LC50 ([3]; Table 7, MTS) was 1.2 µM.
For `O=C(Nc1nc(C2CCNCC2)nc2c1cnn2-c1ccccc1)c1ccc([N+](=O)[O-])s1` [Compound 5-1, 5-nitro-N-(1-phenyl-6-(piperidin-4-yl)-1H-pyrazolo[3,4-d]pyrimidin-4-yl)thiophene-2-carboxamide], the LC50 ([3]; Table 5, MTS) was > 5 µM.
`CC(C)(C)c1ccc(-n2ncc3c(NC(=O)c4ccc([N+](=O)[O-])s4)nc(N4CC(F)(F)C4)nc32)cc1` [Compound 6-65, N-(1-(4-(tert-butyl)phenyl)-6-(3,3-difluoroazetidin-1-yl)-1H-pyrazolo[3,4-d]pyrimidin-4-yl)-5-nitrothiophene-2-carboxamide] was tested, and the LC50 ([3]; Table 6, MTS) was 0.32 µM.
With `CC(C)(C)c1ccc(-n2ncc3c(NC(=O)c4ccc([N+](=O)[O-])s4)nc(N4CCC(F)(F)CC4)nc32)cc1` [Compound 6-67, N-(1(4-(tert-butyl)phenyl)-6-(4,4-difluoropiperidin-1-yl)-1H-pyrazolo[3,4-d]pyrimidin-4-yl)-5-nitrothiophene-2-carboxamide] the LC50 ([3]; Table 6, MTS) was 0.73 µM.
`Cc1csc2c(NC(=O)c3ccc([N+](=O)[O-])s3)nc(-c3cccc(C(F)(F)F)c3)nc12` [Compound 4-3, N-(7-methyl-2-(3-(trifluoromethyl)phenyl)thieno[3,2-1]pyrimidin-4-yl)-5-nitrothiophene-2-carboxamide] gave an LC50 ([3]; Table 4, MTS) of 0.88 µM.
Compound `O=C(Nc1nc(-c2ccc3c(c2)OCO3)nc2c1cnn2C1CCCCC1)c1ccc([N+](=O)[O-])s1` [Compound 10-36, N-(6-(benzo[d][1,3]dioxol-5-yl)-1-cyclohexyl-1H-pyrazolo[3,4-d]pyrimidin-4-yl)-5-nitrothiophene-2-carboxamide] has an LC50 ([3]; Table 10, MTS) of 2.12 µM.
For `O=C(Nc1nc(N2CCC[C@H]2CO)nc2c1cnn2C1CCCCC1)c1ccc([N+](=O)[O-])s1` [Compound 10-3, (S)—N-(1-cyclohexyl-6-(2-(hydroxymethyl)pyrrolidin-1-yl)-1H-pyrazolo[3,4-d]pyrimidin-4-yl)-5-nitrothiophene-2-carboxamide], the LC50 ([3]; Table 10, MTS) was > 5 µM.
For `CCOc1ccc(-c2nc(NC(=O)c3ccc([N+](=O)[O-])s3)c3cnn(C)c3n2)cc1` [Compound 1-2, N-(6-(4-ethoxyphenyl)-1-methyl-1H-pyrazolo[3,4-d]pyrimidin-4-yl)-5-nitrothiophene-2-carboxamide], the LC50 ([3]; Table 1, MTS) was 3.24 µM.
